Results as given in patent US12528786B2, “Plasma kallikrein inhibitors” (Merck Sharp & Dohme LLC, priority 2020, dated 2026).

Molecular target: T1, Human plasma kallikrein (Homo sapiens, UniProt P03952)
T1 construct: yields a heavy chain (371 amino acids) and a light chain (248 amino acids); purchased Enzyme Research Laboratories
Assay: Kallikrein Assay (fluorogenic substrate hydrolysis, AFC release)
Assay type: biochemical
Conditions: purified Human plasma kallikrein 0.5 nM; substrate Acetyl-K—P—R-AFC 100 mM; 50 mM HEPES pH 7.4
Summary of the method: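 Purified human plasma kallikrein (0.5 nM final) with Acetyl-K-P-R-AFC substrate (final ≤0.2 Km) in 50 mM HEPES pH 7.4, 150 mM NaCl, 5 mM CaCl2, 0.1% PEG 8000, after enzyme–inhibitor equilibration; room temperature or 37° C. AFC fluorescence (405 Ex/510 Em nm) under linear conditions; IC50 by four-parameter fit, Ki via Cheng-Prusoff.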

T1 sequence (P03952 391-638 limits assumed): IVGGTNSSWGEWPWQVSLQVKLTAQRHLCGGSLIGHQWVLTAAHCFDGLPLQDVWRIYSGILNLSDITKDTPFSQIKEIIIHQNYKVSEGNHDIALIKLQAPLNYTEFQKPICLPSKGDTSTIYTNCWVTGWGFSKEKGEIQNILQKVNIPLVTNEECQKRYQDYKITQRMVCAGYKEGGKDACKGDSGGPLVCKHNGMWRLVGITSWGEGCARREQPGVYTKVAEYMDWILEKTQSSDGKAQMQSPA
T1 sequence (P03952 20-390 partner limits assumed): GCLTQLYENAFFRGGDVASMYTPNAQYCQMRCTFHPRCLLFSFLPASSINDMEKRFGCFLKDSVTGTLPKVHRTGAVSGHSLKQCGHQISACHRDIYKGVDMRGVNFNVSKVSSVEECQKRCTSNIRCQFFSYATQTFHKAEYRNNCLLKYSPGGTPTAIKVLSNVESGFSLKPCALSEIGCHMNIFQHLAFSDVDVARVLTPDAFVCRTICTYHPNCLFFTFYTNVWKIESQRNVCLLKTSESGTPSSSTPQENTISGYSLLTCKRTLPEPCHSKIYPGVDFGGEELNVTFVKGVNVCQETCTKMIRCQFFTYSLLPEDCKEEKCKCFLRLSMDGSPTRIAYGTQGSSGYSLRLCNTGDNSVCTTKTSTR

Compound | IC50
Cc1cc(N2C[C@H]3C[C@H]3C2=O)ncc1[C@H](C)n1cc(C(=O)N[C@H]2C[C@@H](c3cc(Cl)ccc3-n3cc(F)cn3)C2)nn1 [Example 149, N-((cis)-3-(5-chloro-2-(4-fluoro-1H-pyrazol-1-yl)phenyl)cyclobutyl)-1-((S)-1-(4-methyl-6-((1R,5S)-2-oxo-3-azabicyclo[3.1.0]hexan-3-yl)pyridin-3-yl)ethyl)-1H-1,2,3-triazole-4-carboxamide] | 5 nM
Cc1c([C@H](C)n2cc(C(=O)NC34CCCC(c5cc(Cl)ccc5C#N)(C3)C4)nn2)cnc(N2C[C@H]3C[C@H]3C2=O)c1C [Example 150, N-(5-(5-chloro-2-cyanophenyl)bicyclo[3.1.1]heptan-1-yl)-1-((S)-1-(4,5-dimethyl-6-((1R,5S)-2-oxo-3-azabicyclo[3.1.0]hexan-3-yl)pyridin-3-yl)ethyl)-1H-1,2,3-triazole-4-carboxamide] | 5.8 nM
Cc1c([C@H](C)n2cc(C(=O)N[C@H]3C[C@@H](c4cc(Cl)ccc4C(N)=O)C3)nn2)cnc(N2C[C@H]3C[C@H]3C2=O)c1C [Example 158] | 0.9 nM
Cc1cc(N2C[C@H]3C[C@H]3C2=O)ncc1C1(n2cc(C(=O)N[C@H]3C[C@@H](c4cc(Cl)ccc4C#N)C3)cn2)CC1 [Example 159, N-((cis)-3-(5-chloro-2-cyanophenyl)cyclobutyl)-1-(1-(4-methyl-6-((1R,5S)-2-oxo-3-azabicyclo[3.1.0]hexan-3-yl)pyridin-3-yl)cyclopropyl)-1H-pyrazole-4-carboxamide] | 1.7 nM
Cc1cc(N2C[C@H]3C[C@H]3C2=O)ncc1C1(n2cc(C(=O)N[C@H]3C[C@@H](c4cc(Cl)ccc4C#N)C3)nn2)CC1 [Example 160, N-((cis)-3-(5-chloro-2-cyanophenyl)cyclobutyl)-1-(1-(4-methyl-6-((1R,5S)-2-oxo-3-azabicyclo[3.1.0]hexan-3-yl)pyridin-3-yl)cyclopropyl)-1H-1,2,3-triazole-4-carboxamide] | 6.7 nM
Cc1cc(N2C[C@H]3C[C@H]3C2=O)ncc1[C@H](C)c1cc(C(=O)N[C@H]2C[C@@H](c3cc(Cl)ccc3C#N)C2)n(C)n1 [Example 173, N-((cis)-3-(5-chloro-2-cyanophenyl)cyclobutyl)-1-methyl-3-((S)-1-(4-methyl-6-((1R,5S)-2-oxo-3-azabicyclo[3.1.0]hexan-3-yl)pyridin-3-yl)ethyl)-1H-pyrazole-5-carboxamide] | 3.2 nM
Cc1cc(N2C[C@H]3C[C@H]3C2=O)ncc1[C@@H](C)c1cc(C(=O)N[C@H]2C[C@@H](c3cc(Cl)ccc3C#N)C2)n(C)n1 [Example 174, N-((cis)-3-(5-chloro-2-cyanophenyl)cyclobutyl)-1-methyl-3-((R)-1-(4-methyl-6-((1R,5S)-2-oxo-3-azabicyclo[3.1.0]hexan-3-yl)pyridin-3-yl)ethyl)-1H-pyrazole-5-carboxamide] | 26.9 nM
N-((cis)-3-(5-chloro-2-cyanophenyl)cyclobutyl)-1-((R)-3-((1R,5S)-2-oxo-3-azabicyclo[3.1.0]hexan-3-yl)-6,7-dihydro-5H-cyclopenta[c]pyridin-7-yl)-1H-1,2,3-triazole-4-carboxamide and N-((cis)-3-(5-chloro-2-cyanophenyl)cyclobutyl)-1-((S)-3-((1R,5S)-2-oxo-3-azabicyclo[3.1.0]hexan-3-yl)-6,7-dihydro-5H-cyclopenta[c]pyridin-7-yl)-1H-1,2,3-triazole-4-carboxamide [Example 153] | 23.9 nM
